Experimental data from ChEMBL document CHEMBL1155237, “Selective inhibitors of the mutant B-Raf pathway: discovery of a potent and orally bioavailable aminoisoquinoline” (J Med Chem, 2009).

Tests used:
[1] = biological target: Myosin light chain kinase, smooth muscle (Homo sapiens) (UniProt Q15746); test: Inhibition of MLCK assessed as enzyme activity at 1 uM relative to untreated control; design: scale not given: the % may be the effect or the level left
[2] = biological target: 3-phosphoinositide-dependent protein kinase 1 (Homo sapiens) (UniProt O15530); test: Inhibition of PDPK1 assessed as enzyme activity at 1 uM relative to untreated control; design: scale not given: the % may be the effect or the level left
[3] = biological target: Phosphatidylinositol 4-phosphate 5-kinase type-1 alpha (Homo sapiens) (UniProt Q99755); test: Inhibition of PIP5K1A assessed as enzyme activity at 1 uM relative to untreated control; design: scale not given: the % may be the effect or the level left
[4] = biological target: Cyclin-dependent kinase-like 2 (Homo sapiens) (UniProt Q92772); test: Inhibition of CDKL2 assessed as enzyme activity at 1 uM relative to untreated control; design: scale not given: the % may be the effect or the level left
Chain of Cyclin-dependent kinase-like 2 (Homo sapiens) (Q92772 whole entry): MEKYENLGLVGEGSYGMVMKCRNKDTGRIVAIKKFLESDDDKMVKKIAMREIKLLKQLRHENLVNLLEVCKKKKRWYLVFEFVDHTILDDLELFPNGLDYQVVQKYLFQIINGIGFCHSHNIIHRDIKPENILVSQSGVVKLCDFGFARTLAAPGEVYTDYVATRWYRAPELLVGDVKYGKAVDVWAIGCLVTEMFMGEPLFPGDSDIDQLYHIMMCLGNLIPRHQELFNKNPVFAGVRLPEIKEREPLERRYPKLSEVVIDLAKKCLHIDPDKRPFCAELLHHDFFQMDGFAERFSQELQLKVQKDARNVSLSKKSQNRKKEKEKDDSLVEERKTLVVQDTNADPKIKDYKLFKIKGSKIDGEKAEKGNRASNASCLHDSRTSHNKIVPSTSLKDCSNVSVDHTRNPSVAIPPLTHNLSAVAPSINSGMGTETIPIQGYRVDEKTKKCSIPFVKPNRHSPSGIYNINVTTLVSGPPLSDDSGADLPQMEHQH

[5] = tested on: Proto-oncogene tyrosine-protein kinase receptor Ret (Homo sapiens), P07949 [V804L]; test: Inhibition of RET V804L mutant assessed as enzyme activity at 1 uM relative to untreated control; design: scale not given: the % may be the effect or the level left
[6] = biological target: Myosin light chain kinase 2, skeletal/cardiac muscle (Homo sapiens) (UniProt Q9H1R3); test: Inhibition of MYLK2 assessed as enzyme activity at 1 uM relative to untreated control; design: scale not given: the % may be the effect or the level left
[7] = biological target: Myotonin-protein kinase (Homo sapiens) (UniProt Q09013); test: Inhibition of DMPK assessed as enzyme activity at 1 uM relative to untreated control; design: scale not given: the % may be the effect or the level left
Chain of Myotonin-protein kinase (Homo sapiens) (Q09013 whole entry): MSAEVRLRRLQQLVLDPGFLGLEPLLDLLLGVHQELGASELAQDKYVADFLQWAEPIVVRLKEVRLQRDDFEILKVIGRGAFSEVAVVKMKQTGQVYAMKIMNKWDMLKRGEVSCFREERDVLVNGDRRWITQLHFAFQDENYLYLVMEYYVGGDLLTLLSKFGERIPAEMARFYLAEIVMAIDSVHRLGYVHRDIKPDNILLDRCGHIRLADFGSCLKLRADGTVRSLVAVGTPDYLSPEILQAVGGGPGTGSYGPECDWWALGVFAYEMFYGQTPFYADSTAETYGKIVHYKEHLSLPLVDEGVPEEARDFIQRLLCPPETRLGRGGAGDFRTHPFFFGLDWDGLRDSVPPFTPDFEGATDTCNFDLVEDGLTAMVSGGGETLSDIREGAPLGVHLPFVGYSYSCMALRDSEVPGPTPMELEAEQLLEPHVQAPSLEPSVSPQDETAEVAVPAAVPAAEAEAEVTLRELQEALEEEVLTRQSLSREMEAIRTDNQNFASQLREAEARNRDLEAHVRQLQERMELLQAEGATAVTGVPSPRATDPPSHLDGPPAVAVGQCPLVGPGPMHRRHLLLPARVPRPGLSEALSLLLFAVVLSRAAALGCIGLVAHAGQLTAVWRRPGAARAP

[8] = biological target: Dual specificity protein kinase CLK1 (Homo sapiens) (UniProt P49759); test: Inhibition of CLK1 assessed as enzyme activity at 1 uM relative to untreated control; design: scale not given: the % may be the effect or the level left
Chain of Dual specificity protein kinase CLK1 (Homo sapiens) (P49759 whole entry, looked up): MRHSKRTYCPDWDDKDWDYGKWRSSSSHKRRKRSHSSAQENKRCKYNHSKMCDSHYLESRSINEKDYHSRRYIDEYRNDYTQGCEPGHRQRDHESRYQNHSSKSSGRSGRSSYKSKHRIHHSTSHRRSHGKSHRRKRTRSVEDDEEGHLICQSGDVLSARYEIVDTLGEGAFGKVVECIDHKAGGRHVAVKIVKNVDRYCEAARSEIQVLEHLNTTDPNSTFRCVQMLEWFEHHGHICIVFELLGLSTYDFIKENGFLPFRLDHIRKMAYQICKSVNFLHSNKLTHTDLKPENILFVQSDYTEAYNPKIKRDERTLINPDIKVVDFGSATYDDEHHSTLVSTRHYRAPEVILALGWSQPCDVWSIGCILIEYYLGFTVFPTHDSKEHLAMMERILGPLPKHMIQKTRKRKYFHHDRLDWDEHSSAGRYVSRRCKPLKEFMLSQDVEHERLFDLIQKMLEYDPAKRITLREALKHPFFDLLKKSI

[9] = biological target: Tyrosine-protein kinase receptor Tie-1 (Homo sapiens) (UniProt P35590); test: Inhibition of TIE1 assessed as enzyme activity at 1 uM relative to untreated control; design: scale not given: the % may be the effect or the level left
[10] = biological target: Activin receptor type-1-like (Homo sapiens) (UniProt P37023); test: Inhibition of ACVRL1 assessed as enzyme activity at 1 uM relative to untreated control; design: scale not given: the % may be the effect or the level left
[11] = biological target: Ephrin type-A receptor 8 (Homo sapiens) (UniProt P29322); test: Inhibition of EPHA8 assessed as enzyme activity at 1 uM relative to untreated control; design: scale not given: the % may be the effect or the level left
[12] = biological target: Non-receptor tyrosine-protein kinase TNK1 (Homo sapiens) (UniProt Q13470); test: Inhibition of TNK1 assessed as enzyme activity at 1 uM relative to untreated control; design: scale not given: the % may be the effect or the level left
[13] = biological target: Cyclin-dependent kinase 11B (Homo sapiens) (UniProt P21127); test: Inhibition of CDC2L1 assessed as enzyme activity at 1 uM relative to untreated control; design: scale not given: the % may be the effect or the level left
Chain of Cyclin-dependent kinase 11B (Homo sapiens) (P21127 whole entry): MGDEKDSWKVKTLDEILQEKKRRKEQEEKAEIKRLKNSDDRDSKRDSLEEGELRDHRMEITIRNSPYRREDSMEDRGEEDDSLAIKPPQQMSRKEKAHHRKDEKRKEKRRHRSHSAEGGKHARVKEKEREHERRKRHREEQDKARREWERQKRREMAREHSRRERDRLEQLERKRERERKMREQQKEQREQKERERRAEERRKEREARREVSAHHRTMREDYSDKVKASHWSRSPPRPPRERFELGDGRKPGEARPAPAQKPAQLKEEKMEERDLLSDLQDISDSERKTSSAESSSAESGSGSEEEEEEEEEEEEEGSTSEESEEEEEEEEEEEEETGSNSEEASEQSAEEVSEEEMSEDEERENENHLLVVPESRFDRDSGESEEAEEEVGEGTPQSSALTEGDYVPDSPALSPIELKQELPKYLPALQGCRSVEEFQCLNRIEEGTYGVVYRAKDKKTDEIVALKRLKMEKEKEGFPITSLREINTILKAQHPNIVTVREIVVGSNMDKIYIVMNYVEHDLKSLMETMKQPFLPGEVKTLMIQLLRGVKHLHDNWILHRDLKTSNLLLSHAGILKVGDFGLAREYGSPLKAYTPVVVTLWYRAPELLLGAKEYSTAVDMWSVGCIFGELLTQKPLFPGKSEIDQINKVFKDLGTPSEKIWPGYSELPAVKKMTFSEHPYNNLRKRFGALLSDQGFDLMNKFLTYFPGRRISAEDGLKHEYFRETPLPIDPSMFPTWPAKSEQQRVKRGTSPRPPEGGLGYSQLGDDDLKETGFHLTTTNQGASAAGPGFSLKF

[14] = biological target: Aurora kinase C (Homo sapiens) (UniProt Q9UQB9); test: Inhibition of AURKC assessed as enzyme activity at 1 uM relative to untreated control; design: scale not given: the % may be the effect or the level left
Chain of Aurora kinase C (Homo sapiens) (Q9UQB9 whole entry): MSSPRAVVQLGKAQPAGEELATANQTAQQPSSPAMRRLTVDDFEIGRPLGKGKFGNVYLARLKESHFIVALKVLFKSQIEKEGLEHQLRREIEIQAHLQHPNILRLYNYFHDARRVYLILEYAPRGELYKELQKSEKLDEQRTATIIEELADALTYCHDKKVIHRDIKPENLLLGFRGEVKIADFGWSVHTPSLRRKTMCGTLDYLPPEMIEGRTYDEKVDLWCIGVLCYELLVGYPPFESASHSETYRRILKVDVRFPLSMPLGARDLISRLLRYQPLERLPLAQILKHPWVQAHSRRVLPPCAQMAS

[15] = biological target: Wee1-like protein kinase 2 (Homo sapiens) (UniProt P0C1S8); test: Inhibition of WEE2 assessed as enzyme activity at 1 uM relative to untreated control; design: scale not given: the % may be the effect or the level left
Chain of Wee1-like protein kinase 2 (Homo sapiens) (P0C1S8 whole entry, looked up): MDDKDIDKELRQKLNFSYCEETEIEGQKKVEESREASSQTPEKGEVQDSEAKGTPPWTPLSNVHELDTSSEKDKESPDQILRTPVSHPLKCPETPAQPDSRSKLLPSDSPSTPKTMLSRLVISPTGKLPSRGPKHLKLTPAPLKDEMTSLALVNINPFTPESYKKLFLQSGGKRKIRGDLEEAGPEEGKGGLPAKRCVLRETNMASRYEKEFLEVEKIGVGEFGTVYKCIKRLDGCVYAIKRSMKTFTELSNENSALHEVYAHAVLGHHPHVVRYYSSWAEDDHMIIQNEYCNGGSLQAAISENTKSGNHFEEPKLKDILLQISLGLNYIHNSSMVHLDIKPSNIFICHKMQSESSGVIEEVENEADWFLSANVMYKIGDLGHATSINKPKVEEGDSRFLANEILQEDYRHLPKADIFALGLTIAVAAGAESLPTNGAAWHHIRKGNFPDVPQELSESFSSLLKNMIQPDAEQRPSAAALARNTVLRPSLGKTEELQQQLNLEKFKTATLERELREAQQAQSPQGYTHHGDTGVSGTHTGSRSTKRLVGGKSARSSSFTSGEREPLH

[16] = biological target: AP2-associated protein kinase 1 (Homo sapiens) (UniProt Q2M2I8); test: Inhibition of AAK1 assessed as enzyme activity at 1 uM relative to untreated control; design: scale not given: the % may be the effect or the level left
[17] = biological target: Muscle, skeletal receptor tyrosine-protein kinase (Homo sapiens) (UniProt O15146); test: Inhibition of MUSK assessed as enzyme activity at 1 uM relative to untreated control; design: scale not given: the % may be the effect or the level left
[18] = biological target: Cyclin-dependent kinase 17 (Homo sapiens) (UniProt Q00537); test: Inhibition of PCTK2 assessed as enzyme activity at 1 uM relative to untreated control; design: scale not given: the % may be the effect or the level left
[19] = biological target: Uncharacterized serine/threonine-protein kinase SBK3 (Homo sapiens) (UniProt P0C264); test: Inhibition of SgK110 assessed as enzyme activity at 1 uM relative to untreated control; design: scale not given: the % may be the effect or the level left
Chain of Uncharacterized serine/threonine-protein kinase SBK3 (Homo sapiens) (P0C264 whole entry): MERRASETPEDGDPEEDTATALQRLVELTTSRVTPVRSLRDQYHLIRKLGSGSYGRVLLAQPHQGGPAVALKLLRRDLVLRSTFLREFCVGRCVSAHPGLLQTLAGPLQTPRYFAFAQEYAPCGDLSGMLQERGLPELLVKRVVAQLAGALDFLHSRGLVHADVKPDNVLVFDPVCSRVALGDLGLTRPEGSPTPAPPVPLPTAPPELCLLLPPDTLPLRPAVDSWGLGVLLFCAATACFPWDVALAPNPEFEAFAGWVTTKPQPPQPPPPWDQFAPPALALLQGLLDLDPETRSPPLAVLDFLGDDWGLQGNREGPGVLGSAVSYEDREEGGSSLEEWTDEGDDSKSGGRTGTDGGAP

[20] = biological target: Tyrosine-protein kinase receptor TYRO3 (Homo sapiens) (UniProt Q06418); test: Inhibition of TYRO3 assessed as enzyme activity at 1 uM relative to untreated control; design: scale not given: the % may be the effect or the level left
[21] = Clearance in Sprague-Dawley rat at 2 mg/kg, iv and 5 mg/kg, po; type: ADME, organism-based; conditions: in vivo
[22] = biological target: Discoidin domain-containing receptor 2 (Homo sapiens) (UniProt Q16832); test: Inhibition of DDR2 assessed as enzyme activity at 1 uM relative to untreated control; design: scale not given: the % may be the effect or the level left
[23] = biological target: TRAF2 and NCK-interacting protein kinase (Homo sapiens) (UniProt Q9UKE5); test: Inhibition of TNIK assessed as enzyme activity at 1 uM relative to untreated control; design: scale not given: the % may be the effect or the level left
[24] = tested on: Mus musculus; test: Inhibition of ERK phosphorylation in human A375 SQ2 cells xenografted CD1 mouse at 5 mg/kg, po qd after 6 hrs; type: functional; conditions: CD1, A375-SQ2, 6 h
[25] = biological target: Receptor tyrosine-protein kinase erbB-4 (Homo sapiens) (UniProt Q15303); test: Inhibition of ERBB4 assessed as enzyme activity at 1 uM relative to untreated control; design: scale not given: the % may be the effect or the level left
[26] = Oral bioavailability in CD1 mouse; type: ADME, organism-based; conditions: in vivo
[27] = biological target: Activin receptor type-2A (Homo sapiens) (UniProt P27037); test: Inhibition of ACVR2A assessed as enzyme activity at 1 uM relative to untreated control; design: scale not given: the % may be the effect or the level left
[28] = biological target: Serine/threonine-protein kinase BRSK2 (Homo sapiens) (UniProt Q8IWQ3); test: Inhibition of BRSK2 assessed as enzyme activity at 1 uM relative to untreated control; design: scale not given: the % may be the effect or the level left
[29] = biological target: Protein kinase C epsilon type (Homo sapiens) (UniProt Q02156); test: Inhibition of PRKCE assessed as enzyme activity at 1 uM relative to untreated control; design: scale not given: the % may be the effect or the level left
[30] = biological target: Calcium/calmodulin-dependent protein kinase type II subunit alpha (Homo sapiens) (UniProt Q9UQM7); test: Inhibition of CAMK2A assessed as enzyme activity at 1 uM relative to untreated control; design: scale not given: the % may be the effect or the level left
[31] = biological target: Focal adhesion kinase 1 (Homo sapiens) (UniProt Q05397); test: Inhibition of PTK2 assessed as enzyme activity at 1 uM relative to untreated control; design: scale not given: the % may be the effect or the level left
[32] = biological target: Serine/threonine-protein kinase MARK1 (Homo sapiens) (UniProt Q9P0L2); test: Inhibition of MARK1 assessed as enzyme activity at 1 uM relative to untreated control; design: scale not given: the % may be the effect or the level left
Chain of Serine/threonine-protein kinase MARK1 (Homo sapiens) (Q9P0L2 whole entry, looked up): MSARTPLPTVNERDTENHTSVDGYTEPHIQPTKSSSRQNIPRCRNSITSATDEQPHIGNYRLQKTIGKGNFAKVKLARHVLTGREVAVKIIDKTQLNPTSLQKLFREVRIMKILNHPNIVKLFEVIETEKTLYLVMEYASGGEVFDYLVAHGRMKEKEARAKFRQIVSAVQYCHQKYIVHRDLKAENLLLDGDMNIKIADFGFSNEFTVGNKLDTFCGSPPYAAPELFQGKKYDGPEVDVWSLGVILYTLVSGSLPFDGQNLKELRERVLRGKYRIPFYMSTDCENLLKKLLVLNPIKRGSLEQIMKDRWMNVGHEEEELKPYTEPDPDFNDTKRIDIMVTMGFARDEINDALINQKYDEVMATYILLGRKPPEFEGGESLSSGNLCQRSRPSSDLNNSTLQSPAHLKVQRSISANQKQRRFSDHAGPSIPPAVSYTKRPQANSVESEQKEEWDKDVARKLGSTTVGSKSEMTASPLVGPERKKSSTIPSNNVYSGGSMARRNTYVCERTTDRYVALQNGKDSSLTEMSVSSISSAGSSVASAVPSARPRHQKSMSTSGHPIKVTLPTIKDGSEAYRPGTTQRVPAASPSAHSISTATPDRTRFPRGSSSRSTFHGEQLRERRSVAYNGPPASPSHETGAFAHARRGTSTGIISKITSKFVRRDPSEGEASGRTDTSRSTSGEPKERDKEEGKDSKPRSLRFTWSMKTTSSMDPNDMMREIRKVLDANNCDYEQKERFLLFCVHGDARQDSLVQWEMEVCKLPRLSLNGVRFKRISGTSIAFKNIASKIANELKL

[33] = biological target: Tyrosine-protein kinase ABL1 (Homo sapiens) (UniProt P00519); test: Inhibition of ABL1 assessed as enzyme activity at 1 uM relative to untreated control; design: scale not given: the % may be the effect or the level left
[34] = biological target: Dual specificity protein kinase CLK3 (Homo sapiens) (UniProt P49761); test: Inhibition of CLK3 assessed as enzyme activity at 1 uM relative to untreated control; design: scale not given: the % may be the effect or the level left
Chain of Dual specificity protein kinase CLK3 (Homo sapiens) (P49761 whole entry, looked up): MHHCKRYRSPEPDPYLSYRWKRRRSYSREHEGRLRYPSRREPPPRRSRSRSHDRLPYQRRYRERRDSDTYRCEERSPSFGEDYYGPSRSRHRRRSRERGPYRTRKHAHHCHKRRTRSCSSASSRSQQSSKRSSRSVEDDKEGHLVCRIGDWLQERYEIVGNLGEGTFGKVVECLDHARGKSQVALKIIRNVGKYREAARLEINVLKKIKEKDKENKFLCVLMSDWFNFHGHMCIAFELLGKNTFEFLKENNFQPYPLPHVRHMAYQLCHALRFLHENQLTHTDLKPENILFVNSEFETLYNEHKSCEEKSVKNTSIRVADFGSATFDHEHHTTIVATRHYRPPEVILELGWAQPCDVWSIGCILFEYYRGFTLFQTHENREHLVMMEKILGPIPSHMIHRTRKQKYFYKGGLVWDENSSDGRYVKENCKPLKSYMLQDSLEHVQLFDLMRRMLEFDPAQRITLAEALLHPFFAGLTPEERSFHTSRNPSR

[35] = biological target: NT-3 growth factor receptor (Homo sapiens) (UniProt Q16288); test: Inhibition of TRKC assessed as enzyme activity at 1 uM relative to untreated control; design: scale not given: the % may be the effect or the level left
[36] = biological target: Macrophage-stimulating protein receptor (Homo sapiens) (UniProt Q04912); test: Inhibition of MST1R assessed as enzyme activity at 1 uM relative to untreated control; design: scale not given: the % may be the effect or the level left
[37] = biological target: Myosin-IIIa (Homo sapiens) (UniProt Q8NEV4); test: Inhibition of MYO3A assessed as enzyme activity at 1 uM relative to untreated control; design: scale not given: the % may be the effect or the level left
[38] = biological target: Bone morphogenetic protein receptor type-1A (Homo sapiens) (UniProt P36894); test: Inhibition of BMPR1A assessed as enzyme activity at 1 uM relative to untreated control; design: scale not given: the % may be the effect or the level left

Cc1ccc2c(Nc3ccc(Cl)cc3)nccc2c1Nc1ncccc1-c1ncnc2[nH]cnc12.Cl.Cl.Cl
Activity [1]: 99% | Activity [2]: 100% | Activity [3]: 95% | Activity [4]: 100% | Activity [5]: 100% | Activity [6]: 100% | Activity [7]: 100% | Activity [8]: 100% | Activity [9]: 4.9% | Activity [10]: 92% | Activity [11]: 0.45% | Activity [12]: 100% | Activity [13]: 42% | Activity [14]: 86% | Activity [15]: 97% | Activity [16]: 92% | Activity [17]: 66% | Activity [18]: 100% | Activity [19]: 78% | Activity [20]: 84% | clearance [21]: 6.67 mL/min/kg | Activity [22]: 6.6% | Activity [23]: 100% | inhibition in vivo at 5 mg/kg [24]: 77% | Activity [25]: 98% | bioavailability [26]: 79% | Activity [27]: 100% | Activity [28]: 87% | Activity [29]: 100% | Activity [30]: 100% | Activity [31]: 93% | Activity [32]: 97% | Activity [33]: 51% | Activity [34]: 94% | Activity [35]: 2.2% | Activity [36]: 97% | Activity [37]: 99% | Activity [38]: 100%
